Test results from US7598234B2, “Steroid derived antibiotics” (Brigham Young University, priority 1998, dated 2009).
In brackets after ≈: the same amount, converted by molar mass. One block for each molecule: values may come before it.

Experiments:
E. coli (ATCC 10798) [1] = test: MIC and MBC measurement with E. coli (ATCC 10798); assay type: cell-based, Escherichia coli; conditions: Table 1; E. coli (ATCC 10798)
Excerpt: (§1) General: Microorganisms. Reference strains were purchased from the American Type Culture Collection (Rockville, Md.) or Bactrol disks from Difeo Laboratories (Detroit, Mich.). The following specific ATCC strains were used: 10798 Escherichia coli, 25922 Escherichia coli, 13883 Klebsiella pneumoniae, 27853 Pseudomonas aeruginosa, 14028 Salmonella typhimurium, 29212 Enterococcus faecalis, 25923 Staphylococcus aureus, 19615 Streptococcus pyogenes, and 90028 Candida albicans. Bacterial strains were maintained on Mueller-Hinton agar plates, and Candida albicans was maintained on Sabouraud Dextrose agar plates.
(§2) Tryptic soy broth (TSB) was made by dissolving 27.5 grams of tryptic soy broth without dextrose (DIFCO Laboratories) in 1 liter of deionized water and sterilizing at 121° C. for 15 minutes. Solid agar (TSA) plates were made by dissolving 6.4 grams of tryptic soy broth and 12 grams of agar (purified grade, Fischer Scientific) in 800 mL of deionized water and sterilizing at 121° C. for 20 minutes. Aliquots (20 mL) of the homogeneous solution were then poured in sterile plastic petri dishes (100×15 mm, Fisher Scientific). Solutions of compounds were made by dissolving the HCl salt of the respective compound into an appropriate amount of deionized and sterilized water followed by microfiltration.
(§3) Aliquots of 1 mL of the suspension were added to test tubes containing 1 mL TSB and incrementally varied concentrations of cholic acid derivatives and/or erythromycin or novobiocin. In the sensitization experiments, erythromycin or novobiocin were added 15 minutes later than the cholic acid derivatives. The samples were subjected to stationary incubation at 37° C. for 24 hours. Sample turbidity was determined by measuring absorption at 760 nm (HP 8453 UV-Visible Chemstation, Hewlett Packard). Additionally, an alliquot from each of the samples showing no measurable turbidity was subcultured on TSA plates (alliquots were diluted to provide fewer than 300 CFU). Colonies that grew on the subculture after overnight incubation were counted and the number of CFU/mL in the samples were calculated. The calculated values were compared to the number of CFU/mL in the original inoculum.

E. coli (ATCC 10798) [2] = test: Sensitization to erythromycin (concentration lowering the MIC of erythromycin), E. coli (ATCC 10798); assay type: cell-based, Escherichia coli; conditions: Table 2, E. coli (ATCC 10798)
Description: (§4) Alternatively, “fractional inhibitory concentration (FIC)” is also useful for determination of synergy between the compounds of the invention, or the compounds in combination with known antibiotics. FICs can be performed by checkerboard titrations of compounds in one dimension of a microtiter plate, and of antibiotics in the other dimension, for example. The FIC is calculated by looking at the impact of one antibiotic on the MIC of the other and vice versa. […] Preferably, an FIC of less than 0.5 is obtained for synergism. As used herein, FIC can be determined as follows:
as §3
(§5) Ability to permeabilize outer membrane: Compounds 11, 106, and 108-114 (FIG. 1) were tested for antibiotic activity. They were also tested for the ability to permeabilize the outer membrane of Gram-negative bacteria, causing sensitization to hydrophobic antibiotics that cannot cross the outer membrane. The permeabilization of the outer membrane was measured using erythromycin and novobiocin.
(§6) The MICs of erythromycin and novobiocin against E. coli (ATCC 10798) at 70 and >500 μg/mL were measured.

E. coli (ATCC 10798) [3] = test: Sensitization to novobiocin (concentration lowering the MIC of novobiocin), E. coli (ATCC 10798); assay type: cell-based, Escherichia coli; conditions: Table 3, E. coli (ATCC 10798)
Description: as §4, §3, §5, §6

E. coli (ATCC 25922) [4] = test: MIC and MBC measurement with E. coli (ATCC 25922); assay type: cell-based, Escherichia coli
Excerpt: as §1, §2
as §3, with “inoculum. […]” for “inoculum.”

E. coli (ATCC 25922) [5] = test: Sensitization to erythromycin, E. coli (ATCC 25922); assay type: cell-based, Escherichia coli
Description: FICs can be performed by checkerboard titrations of compounds in one dimension of a microtiter plate, and of antibiotics in the other dimension, for example. The FIC is calculated by looking at the impact of one antibiotic on the MIC of the other and vice versa. […] Preferably, an FIC of less than 0.5 is obtained for synergism. As used herein, FIC can be determined as follows:
as §3
Concentrations of 0.5, 1.0 or 3.0 μg/mL of these antibiotics were used, and the concentrations of the cholic acid derivatives required to inhibit bacterial growth of Gram-negative strains were determined.
(§7) Minimum inhibition concentrations (MIC) and minimum hemolytic concentrations (MHC) were measured as described in Li et al., Antimicrob. Agents. Chemother., 1999, 43, 1347.

[6] = test system: Pseudomonas aeruginosa (ATCC 27853); test: MIC and MBC measurement with Pseudomonas aeruginosa (ATCC 27853); assay type: cell-based
Excerpt: as §1, §2, §3

[7] = test system: Pseudomonas aeruginosa (ATCC 27853); test: Sensitization to erythromycin, Pseudomonas aeruginosa (ATCC 27853); assay type: cell-based
Description: as §4
as §3, with “inoculum. […]” for “inoculum.”
(§8) To measure permeabilization, the FIC values for compounds 1, 2, 5, 106, 10, 112, 133, and 134 with erythromycin, novobiocin, and rifampicin were determined. Concentrations of 0.5, 1.0 or 3.0 μg/mL of these antibiotics were used, and the concentrations of the cholic acid derivatives required to inhibit bacterial growth of Gram-negative strains were determined.

[8] = test system: Pseudomonas aeruginosa (ATCC 27853); test: Sensitization to novobiocin, Pseudomonas aeruginosa (ATCC 27853); assay type: cell-based; conditions: Table 8; P. aureginosa (ATCC 27853)
Description: as §4
as §3, with “inoculum. […]” for “inoculum.”
as §8

[9] = test system: Klebsiella pneumonia ATCC 13883; test: MIC and MBC measurement with Klebsiella pneumoniae ATCC 13883; assay type: cell-based; conditions: Table 10
Excerpt: as §1, §2, §3

[10] = test system: Salmonella typhimurium ATCC 14028; test: MIC and MBC measurement with Salmonella typhimurium ATCC 14028; assay type: cell-based; conditions: Table 10
Excerpt: as §1, §2, §3

[11] = test system: Enterococcus faecalis ATCC 29212; test: MIC and MBC measurement with Enterococcus faecalis ATCC 29212; assay type: cell-based; conditions: Table 10
Excerpt: as §1, §2, §3

[12] = test system: Staphylococcus aureus ATCC 25923; test: MIC and MBC measurement with Staphylococcus aureus ATCC 25923; assay type: cell-based; conditions: Table 10; Staphylococcus aureus ATCC 25923
Excerpt: as §1, §2
as §3, with “inoculum. […]” for “inoculum.”

[13] = test system: Streptococcus pyrogenes ATCC 19615; test: MIC and MBC measurement with Streptococcus pyogenes ATCC 19615; assay type: cell-based; conditions: Table 10
Excerpt: as §1, §2, §3

[14] = test system: Candida albicans ATCC 90028; test: MIC and MBC measurement with Candida albicans ATCC 90028; assay type: cell-based; conditions: Table 10
Excerpt: as §1, §2, §3

[15] = Description: as §7
Gram-negative bacteria [16] = test: MIC of ester and amide side chain compounds (Table 14); assay type: cell-based; conditions: strain not given
Description: as §3
(§9) Ester and amide side chains: Additional compounds, for example, compounds with amide and ester side chains, were tested.

Gram-negative bacteria [17] = test: Sensitization to erythromycin, ester and amide side chain compounds (Table 14); assay type: cell-based; conditions: Table 14; strain not given
Description: as §3, §5, §9

Gram-negative bacteria [18] = test: Sensitization to novobiocin, ester and amide side chain compounds (Table 14); assay type: cell-based; conditions: strain not given
Description: as §3, §5, §9

[19] = Table 10, Escherichia coli ATCC 25922
[20] = Table 6, P. aureginosa (ATCC 27853)
[21] = Table 10, Pseudomonas aeruginosa ATCC 27853

- MIC (E. coli (ATCC 10798) [1]): 2 µg/mL (≈ 2.52 µM)
- MIC (E. coli (ATCC 25922) [4]; Table 4, E. coli (ATCC 25922)): 2 µg/mL (≈ 2.52 µM)
- MIC (E. coli (ATCC 25922) [4]; [19]): 1.4 µg/mL (≈ 1.76 µM)
- MIC [6, 20]: 6 µg/mL (≈ 7.55 µM)
- MIC [6, 21]: 5.9 µg/mL (≈ 7.42 µM)
- MIC [9]: 3.0 µg/mL (≈ 3.77 µM)
- MIC [10]: 2.2 µg/mL (≈ 2.77 µM)
- MIC [11]: 2.2 µg/mL (≈ 2.77 µM)
- MIC [12]: 0.6 µg/mL (≈ 0.755 µM)
- MIC [13]: 2.0 µg/mL (≈ 2.52 µM)
- MIC [14]: 11 µg/mL (≈ 13.8 µM)
- MHC [15]: 26 µg/mL
Structure (SMILES): C[C@H](CCCN(C)Cc1ccccc1)[C@H]1CC[C@H]2[C@@H]3[C@H](OCCCNC(=N)N)C[C@@H]4C[C@H](OCCCNC(=N)N)CC[C@]4(C)[C@H]3C[C@H](OCCCNC(=N)N)[C@]12C [Compound 5]
- MBC (E. coli (ATCC 10798) [1]): 4 µg/mL (≈ 5.03 µM)
- MIC: concentration required to lower the MIC of erythromycin from 70 μg/mL to 1 μg/mL (E. coli (ATCC 10798) [2]): 1 µg/mL
- MBC (with erythromycin) (E. coli (ATCC 10798) [2]; erythromycin sensitization): 3 µg/mL
- MIC: concentration required to lower the MIC of novobiocin from >500 μg/mL to 1 μg/mL (E. coli (ATCC 10798) [3]): 2 µg/mL
- MBC (with novobiocin) (E. coli (ATCC 10798) [3]; novobiocin sensitization): 4 µg/mL
- MBC (E. coli (ATCC 25922) [4]; Table 4, E. coli (ATCC 25922)): 4 µg/mL (≈ 5.03 µM)
- MBC (E. coli (ATCC 25922) [4]; [19]): 3.8 µg/mL (≈ 4.78 µM)
- MIC: concentration required to lower the MIC of erythromycin from 60 μg/mL to 1 μg/mL (E. coli (ATCC 25922) [5]; Table 5, E. coli (ATCC 25922)): 1.5 µg/mL
- MBC (with erythromycin) (E. coli (ATCC 25922) [5]; Table 5, E. coli (ATCC 25922), erythromycin sensitization): 1.5 µg/mL
- FIC (E. coli (ATCC 25922) [5]; Table 11, Escherichia coli ATCC 25922, erythromycin (by order)): 0.31
- concentration required to inhibit bacterial growth with antibiotic (E. coli (ATCC 25922) [5]; Table 11, Escherichia coli ATCC 25922, erythromycin (by order) at 0.5, 1.0 or 3.0 μg/mL): 0.38 µg/mL
- MBC [6, 20]: 15 µg/mL (≈ 18.9 µM)
- MBC [6, 21]: 9.9 µg/mL (≈ 12.5 µM)
- MIC: concentration required to lower the MIC of erythromycin from 240 μg/mL to 5 μg/mL ([7]; Table 7, P. aureginosa (ATCC 27853)): 3 µg/mL
- MBC (with erythromycin) ([7]; Table 7, P. aureginosa (ATCC 27853), erythromycin sensitization): 10 µg/mL
- FIC ([7]; Table 11, Pseudomonas aeruginosa ATCC 27853, erythromycin (by order)): 0.42
- concentration required to inhibit bacterial growth with antibiotic ([7]; Table 11, Pseudomonas aeruginosa ATCC 27853, erythromycin (by order) at 0.5, 1.0 or 3.0 μg/mL): 2.3 µg/mL
- MIC: concentration required to lower the MIC of novobiocin from >500 μg/mL to 1 μg/mL [8]: 6 µg/mL
- MBC [9]: 6.7 µg/mL (≈ 8.43 µM)
- MBC [10]: 3.8 µg/mL (≈ 4.78 µM)
- MBC [11]: 16 µg/mL (≈ 20.1 µM)
- MBC [12]: 3.2 µg/mL (≈ 4.02 µM)
- MBC [13]: 2.1 µg/mL (≈ 2.64 µM)
- MBC [14]: 50 µg/mL (≈ 62.9 µM)

Structure (SMILES): C[C@H](CCCN(C)Cc1ccccc1)[C@H]1CC[C@H]2[C@@H]3[C@H](OC(=O)CN)C[C@@H]4C[C@H](OC(=O)CN)CC[C@]4(C)[C@H]3C[C@H](OC(=O)CN)[C@]12C.Cl.Cl.Cl.Cl [Compound 6]
- MIC (E. coli (ATCC 10798) [1]): 65 µg/mL
- MIC: concentration required to lower the MIC of erythromycin from 70 μg/mL to 1 μg/mL (E. coli (ATCC 10798) [2]): 22 µg/mL
- MIC (Gram-negative bacteria [16]): 85 µg/mL
- a: concentration of cholic acid derivatives required to lower MIC of erythromycin to 1 μg/ML (Gram-negative bacteria [17]): 15 µg/mL
- b: concentration of cholic acid derivatives required to lower MIC of novobiocin to 1 μg/ML (Gram-negative bacteria [18]): 40 µg/mL

Structure (SMILES): C[C@H](CCCO)[C@H]1CC[C@H]2[C@@H]3[C@H](OC(=O)CN)C[C@@H]4C[C@H](OC(=O)CN)CC[C@]4(C)[C@H]3C[C@H](OC(=O)CN)[C@]12C [Compound 203a]
- MIC (Gram-negative bacteria [16]): 85 µg/mL
- a: concentration of cholic acid derivatives required to lower MIC of erythromycin to 1 μg/ML (Gram-negative bacteria [17]): 18 µg/mL
- b: concentration of cholic acid derivatives required to lower MIC of novobiocin to 1 μg/ML (Gram-negative bacteria [18]): 55 µg/mL

Structure (SMILES): C[C@H](CCCO)[C@H]1CC[C@H]2[C@@H]3[C@H](OC(=O)CCN)C[C@@H]4C[C@H](OC(=O)CCN)CC[C@]4(C)[C@H]3C[C@H](OC(=O)CCN)[C@]12C [Compound 203b]
- MIC (Gram-negative bacteria [16]): 80 µg/mL
- a: concentration of cholic acid derivatives required to lower MIC of erythromycin to 1 μg/ML (Gram-negative bacteria [17]): 4 µg/mL
- b: concentration of cholic acid derivatives required to lower MIC of novobiocin to 1 μg/ML (Gram-negative bacteria [18]): 10 µg/mL
